For 31 compounds, EC50 results are on record in patent US11040033B2 (Gilead Sciences, Inc., priority 2017, dated 2021).

For orientation: EC50 means the concentration giving half of the maximal effect.

SMILES strings stand for the structures.

T1 sequence (P14902 whole entry): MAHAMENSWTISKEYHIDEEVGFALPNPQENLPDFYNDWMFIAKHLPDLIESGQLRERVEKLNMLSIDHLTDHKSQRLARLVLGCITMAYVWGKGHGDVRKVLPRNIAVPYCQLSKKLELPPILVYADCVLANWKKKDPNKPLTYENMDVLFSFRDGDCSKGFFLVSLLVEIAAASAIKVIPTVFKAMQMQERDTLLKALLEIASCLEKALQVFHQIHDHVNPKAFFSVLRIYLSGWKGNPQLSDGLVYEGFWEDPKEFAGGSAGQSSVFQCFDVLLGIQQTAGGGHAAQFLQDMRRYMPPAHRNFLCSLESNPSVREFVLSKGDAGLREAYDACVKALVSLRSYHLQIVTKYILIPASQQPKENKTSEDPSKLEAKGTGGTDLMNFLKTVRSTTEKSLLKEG

This experiment concerns the target T1, IDO1 (Homo sapiens, UniProt P14902).
T1 construct: HeLa cells were treated with a test compound in the presence of IFNγ, which induces IDO1 expression; endogenous in cells; host or cells: H1-HeLa cells (ATCC #CRL-1958), induced with IFNγ
The experiment is described as follows: Cell-based (HeLa) assay for measurement of IDO1 inhibition (kynurenine levels in supernatant after IFNγ induction). The conditions noted are these: H1-HeLa cells, IFNγ-induced IDO1, 48 hour incubation, kynurenine absorbance at 480 nm; geometric mean of a minimum of four determinations. The protocol: To measure IDO1 inhibition in tissue culture, HeLa cells were treated with a test compound in the presence of IFNγ, which induces IDO1 expression. Following incubation, cell supernatants were assayed for kynurenine levels, an indicator of IDO1 activity.
H1-HeLa cells (ATCC #CRL-1958) were seeded in 384-well plates (Greiner #82051-282) at a volume […] (Corning #15-018-CM) supplemented with 10% FBS (Corning #35-011-CV) and 1% P/S/G (Corning #30-009-CL) at a density of 1,250 cells/well and incubated overnight at 37° C., 5% CO2/100% humidity. The following day, the test compounds were added in DMSO (0.5% final) at various concentrations, and IDO1 was inducibly expressed by the addition of 50 uL/well of 50 ng/mL of INFγ(Peprotech #300-02) in cell plating media. As a positive control, 50 uL of the cell plating media without IFNγ was added to several wells. Following a 48 hour incubation, the plates were spun down at 1,200 RPM for 5 min at 10° C. 65 μL/well of the supernatant was then transferred to new 384-well plates (Thermo #262160) that contained 10 uL/well of 30% TCA (Sigma #T0699), and the plates were sealed and incubated at 60° C. for 30 min. The plates were then centrifuged for 15 min at 2,000 RPM at 10° C. 40 μL/well of the supernatant was transferred to new 384-well plates (Thermo #262160) and was reacted with 40 μL/well of 2% (w/v) p-dimethylaminobenzaldehyde (Sigma #156417) in glacial acetic acid (Sigma #A6283). The reaction was incubated at room temperature for 10 min and absorbance at 480 nm was read using a PerkinElmer Envision plate reader.
Data in Table 1 were normalized based on positive (−IFNγ) and negative (+IFNγ) controls and EC50 values were calculated from the fit of the dose-response curves to a four-parameter equation. All EC50 values represent geometric mean values of a minimum of four determinations. These assays generally produced results within 2-fold of the reported mean.
As for `O=C(Nc1ccc(F)cc1)c1cc(-c2cccn3c(-c4cccc(F)c4F)ncc23)ccc1C1CC1` [Example 62, 2-cyclopropyl-5-(3-(2,3-difluorophenyl)imidazo[1,5-a]pyridin-8-yl)-N-(4-fluorophenyl)benzamide], it took 0.0152 µM to reach a half-maximal effect (EC50). With `Cc1ncc(-c2cccn3c(-c4cccc(F)c4F)ncc23)cc1C(=O)Nc1ccc(F)c(Br)c1` [Example 63, N-(3-bromo-4-fluorophenyl)-5-(3-(2,3-difluorophenyl)imidazo[1,5-a]pyridin-8-yl)-2-methylnicotinamide], a half-maximal effect (EC50) was put at 0.307 µM. In turn, `Cc1ncc(-c2cccn3c(-c4cccc(F)c4F)ncc23)cc1C(=O)Nc1ccc(Cl)cc1F` [Example 64, N-(4-chloro-2-fluorophenyl)-5-(3-(2,3-difluorophenyl)imidazo[1,5-a]pyridin-8-yl)-2-methylnicotinamide] returned an EC50 of 0.0243 µM.

The compound `Cc1cnc(-c2cccn3c(-c4cccc(F)c4F)ncc23)nc1C(=O)Nc1ccc(F)cc1` [Example 65, 2-(3-(2,3-difluorophenyl)imidazo[1,5-a]pyridin-8-yl)-N-(4-fluorophenyl)-5-methylpyrimidine-4-carboxamide] returned an EC50 of 0.399 µM. Against the preceding compound, the EC50 is about 16-fold higher. Compound `Cc1ncc(-c2cccn3c(-c4cccc(F)c4F)ncc23)cc1C(=O)Nc1ccccc1` [Example 66, 5-(3-(2,3-difluorophenyl)imidazo[1,5-a]pyridin-8-yl)-2-methyl-N-phenylnicotinamide] showed an EC50 of 0.0153 µM. The compound `Cc1ncc(-c2cccn3c(-c4cccc(F)c4F)ncc23)cc1C(=O)Nc1ccc(OC(F)F)cc1` [Example 67, N-(4-(difluoromethoxy)phenyl)-5-(3-(2,3-difluorophenyl)imidazo[1,5-a]pyridin-8-yl)-2-methylnicotinamide] displayed an EC50 of 0.0795 µM.

For `Cc1ncc(-c2cccn3c(-c4cccc(F)c4F)ncc23)cc1C(=O)Nc1ccc(F)c(F)c1` [Example 68], a half-maximal response (EC50) required 0.101 µM. This EC50 and that of the compound before are within 1.5-fold of each other. Regarding `Cc1ncc(-c2cccn3c(-c4cccc(F)c4F)ncc23)cc1C(=O)Nc1ccncc1` [Example 69, 5-(3-(2,3-difluorophenyl)imidazo[1,5-a]pyridin-8-yl)-2-methyl-N-(pyridin-4-yl)nicotinamide], the response was half-maximal at 0.0576 µM (EC50). Regarding `O=C(Nc1ccc(F)cc1)c1cc(-c2cccn3c(-c4cccc(F)c4F)ncc23)ccc1Cl` [Example 70, 2-chloro-5-(3-(2,3-difluorophenyl)imidazo[1,5-a]pyridin-8-yl)-N-(4-fluorophenyl)benzamide], the concentration giving a half-maximal response (EC50) is 0.0122 µM. Turning to `Cc1cc(NC(=O)c2cc(-c3cccn4c(-c5cccc(F)c5F)ncc34)cnc2C)ccn1` [Example 71, 5-(3-(2,3-difluorophenyl)imidazo[1,5-a]pyridin-8-yl)-2-methyl-N-(2-methylpyridin-4-yl)nicotinamide], the EC50 amounted to 0.656 µM.

Turning to `Cc1ncc(-c2cccn3c(-c4cccc(F)c4F)ncc23)cc1C(=O)Nc1cccc(OC(F)(F)F)c1` [Example 72, 5-(3-(2,3-difluorophenyl)imidazo[1,5-a]pyridin-8-yl)-2-methyl-N-(3-(trifluoromethoxy)phenyl)nicotinamide], the 50% effective concentration (EC50) was determined as 0.38 µM. Compound `[2H]c1c([2H])c(NC(=O)c2cc(-c3cccn4c(-c5cccc(F)c5F)ncc34)cnc2C)c([2H])c([2H])c1F` [Example 73, 5-(3-(2,3-difluorophenyl)imidazo[1,5-a]pyridin-8-yl)-N-(4-fluorophenyl-2,3,5,6-d4)-2-methylnicotinamide] gave a 50% effective concentration (EC50) of 0.0239 µM. Consider `Cc1ncc(-c2cccn3c(C4CCCC4)ncc23)cc1C(=O)Nc1ccc(F)cc1` [Example 74, 5-(3-cyclopentylimidazo[1,5-a]pyridin-8-yl)-N-(4-fluorophenyl)-2-methylnicotinamide], for which a half-maximal response (EC50) required 0.46 µM. To `Cc1ncc(-c2cccn3c(C4CCOCC4)ncc23)cc1C(=O)Nc1ccc(F)cc1` [Example 75, N-(4-fluorophenyl)-2-methyl-5-(3-(tetrahydro-2H-pyran-4-yl)imidazo[1,5-a]pyridin-8-yl)nicotinamide] belongs 0.591 µM; to `Cc1ccn2c(-c3cccc(F)c3F)ncc2c1-c1cnc(C)c(C(=O)Nc2ccc(F)cc2)c1` [Example 77, 5-(3-(2,3-difluorophenyl)-7-methylimidazo[1,5-a]pyridin-8-yl)-N-(4-fluorophenyl)-2-methylnicotinamide], 0.73 µM. The compound `Cc1cc(-c2cnc(C)c(C(=O)Nc3ccc(F)cc3)c2)c2cnc(-c3cccc(F)c3F)n2c1` [Example 78, 5-(3-(2,3-difluorophenyl)-6-methylimidazo[1,5-a]pyridin-8-yl)-N-(4-fluorophenyl)-2-methylnicotinamide] showed an EC50 of 0.895 µM. Compound `Cc1ncc(-c2cccn3c(-c4cccc(F)c4F)nc(Cl)c23)cc1C(=O)Nc1ccc(F)cc1` [Example 79, 5-(1-chloro-3-(2,3-difluorophenyl)imidazo[1,5-a]pyridin-8-yl)-N-(4-fluorophenyl)-2-methylnicotinamide] yielded an EC50 of 0.118 µM. To `Cc1ncc(-c2cccn3c(-c4ccccc4Cl)ncc23)cc1C(=O)Nc1ccc(F)cc1` [Example 80, 5-(3-(2-chlorophenyl)imidazo[1,5-a]pyridin-8-yl)-N-(4-fluorophenyl)-2-methylnicotinamide] belongs 0.0193 µM; to `Cc1ncc(-c2cccn3c(-c4cccc(Cl)c4)ncc23)cc1C(=O)Nc1ccc(F)cc1` [Example 81, 5-(3-(3-chlorophenyl)imidazo[1,5-a]pyridin-8-yl)-N-(4-fluorophenyl)-2-methylnicotinamide], 0.235 µM. To `O=C(Nc1ccc(F)cc1)c1cc(-c2cccn3c(-c4cccc(F)c4F)ncc23)cnc1C1CC1` [Example 82, 2-cyclopropyl-5-(3-(2,3-difluorophenyl)imidazo[1,5-a]pyridin-8-yl)-N-(4-fluorophenyl)nicotinamide] belongs 0.0175 µM; to `O=C(Nc1ccc(F)cc1)c1cccc(-c2cccn3c(-c4cccc(F)c4F)ncc23)n1` [Example 83, 6-(3-(2,3-difluorophenyl)imidazo[1,5-a]pyridin-8-yl)-N-(4-fluorophenyl)picolinamide], 0.207 µM; to `Cc1c(F)cc(-c2cccn3c(-c4cccc(F)c4F)ncc23)cc1C(=O)Nc1ccc(F)cc1` [Example 84], 0.0753 µM. The compound `O=C(Nc1ccc(F)cc1)c1nc(-c2cccn3c(-c4cccc(F)c4F)ncc23)ccc1Cl` [Example 85] had an EC50 of 0.052 µM. For `Cc1ncc(-c2cccn3c(-c4cccc(Cl)c4Cl)ncc23)cc1C(=O)Nc1ccc(F)cc1` [Example 86, 5-(3-(2,3-dichlorophenyl)imidazo[1,5-a]pyridin-8-yl)-N-(4-fluorophenyl)-2-methylnicotinamide] the value was 0.0308 µM; for `Cc1ncc(-c2cccn3c(-c4cccc(F)c4Cl)ncc23)cc1C(=O)Nc1ccc(F)cc1` [Example 87, 5-(3-(2-chloro-3-fluorophenyl)imidazo[1,5-a]pyridin-8-yl)-N-(4-fluorophenyl)-2-methylnicotinamide], 0.0133 µM.

As to `Cc1ncc(-c2cccn3c(-c4cccc(Cl)c4F)ncc23)cc1C(=O)Nc1ccc(F)cc1` [Example 88], the EC50 is 0.0495 µM.

Regarding `Cc1ncc(-c2cccn3c(-c4ccc(F)cc4F)ncc23)cc1C(=O)Nc1ccc(F)cc1` [Example 89, 5-(3-(2,4-difluorophenyl)imidazo[1,5-a]pyridin-8-yl)-N-(4-fluorophenyl)-2-methylnicotinamide], the concentration giving a half-maximal response (EC50) was 0.0306 µM.

In the case of `Cc1ncc(-c2cccn3c(C4CC4)ncc23)cc1C(=O)Nc1ccc(F)cc1` [Example 90, 5-(3-cyclopropylimidazo[1,5-a]pyridin-8-yl)-N-(4-fluorophenyl)-2-methylnicotinamide], the EC50 was determined as 2.94 µM. In turn, `Cc1ncc(-c2cccn3c(C4CCC4)ncc23)cc1C(=O)Nc1ccc(F)cc1` [Example 91, 5-(3-cyclobutylimidazo[1,5-a]pyridin-8-yl)-N-(4-fluorophenyl)-2-methylnicotinamide] registered an EC50 of 0.888 µM. Against the preceding compound, the EC50 is about 3.3-fold lower.

On to `Cc1ncc(-c2cccn3c(-c4cccc(F)c4F)nc(Br)c23)cc1C(=O)Nc1ccc(F)cc1` [Example 92, 5-(1-bromo-3-(2,3-difluorophenyl)imidazo[1,5-a]pyridin-8-yl)-N-(4-fluorophenyl)-2-methylnicotinamide], for which the EC50 was determined as 0.273 µM. For `Cc1ncc(-c2cccn3c(C4CCCCC4)ncc23)cc1C(=O)Nc1ccc(F)cc1` [Example 93, 5-(3-cyclohexylimidazo[1,5-a]pyridin-8-yl)-N-(4-fluorophenyl)-2-methylnicotinamide] the value was 0.25 µM.
